Test results taken from patent publication US6316436A, “Inhibitors of prenyl-protein transferase” (Merck & Co., Inc., priority 1999, dated 2001).
pIC50: −log10 of the molar value.

Biological target: T1, human FPTase (Homo sapiens, UniProt P49354+P49356)
T1 construct: made in house
Assay: In vitro inhibition of Ras farnesyl transferase (FPTase inhibition assay)
Type: biochemical
Details: 30° C.; 650 nM Ras-CVLS, 100 nM farnesyl diphosphate; recombinant FPTase; read-out: IC50 for inhibitory activity against human FPTase
Protocol: In Vitro Inhibition of Ras Farnesyl Transferase
Isoprenyl-protein transferase activity assays are carried out at 30° C. unless noted otherwise. A typical reaction contains (in a final volume of 50 μL): [^3 H]farnesyl diphosphate, Ras protein, 50 mM HEPES, pH 7.5, 5 mM MgCl2, 5 mM dithiothreitol, 10 μM ZnCl2, 0.1% polyethyleneglycol (PEG) (15,000-20,000 mw) and isoprenyl-protein transferase. The FPTase employed in the assay is prepared by recombinant expression as described in Omer, C. A., Kral, A. M., Diehl, R. E., Prendergast, G. C., Powers, S., Allen, C. M., Gibbs, J. B. and Kohl, N. E. (1993) Biochemistry 32:5167-5176. After thermally pre-equilibrating the assay mixture in the absence of enzyme, reactions are initiated by the addition of isoprenyl-protein transferase and stopped at timed intervals (typically 15 min) by the addition of 1 M HCl in ethanol (1 mL). The quenched reactions are allowed to stand for 15 m (to complete the precipitation process). After adding 2 mL of 100% ethanol, the reactions are vacuum-filtered through Whatman GF/C filters. Filters are washed four times with 2 mL aliquots of 100% ethanol, mixed with scintillation fluid (10 mL) and then counted in a Beckman LS3801 scintillation counter. […]

pIC50: ≥ 5.00
Compound: CCC12CCCCN(C1)C(=O)CCc1cncn1Cc1ccc(C#N)c(c1)Oc1cccc2c1 (racemic) [Example 1, (±) 5H-17-Ethyl-17,22-methano-18,19,20,21,23,24-hexahydro-23-oxo-6,10: 12,16-dimetheno-25H-imidazo[3,4-h]-[1,11,16]oxadiazacyclodocosane-9-carbonitrile]
